Measurements taken from article PMC9525908, “α-Crystallin chaperone mimetic drugs inhibit lens γ-crystallin aggregation: Potential role for cataract prevention” (The Journal of Biological Chemistry, 2022).
Numbering of substitutions follows the chain as printed.

Legend:
[1] = biological target: T1, R58H mutant of HγD (Homo sapiens, UniProt P07320, R59H); assay: End-point turbidity assay (72 °C, 20 min) of R58H mutant; type: biochemical; details: 500 μM drug, read-out: Inhibition of aggregation (%) R58H
T1 construct: made in house; host or cells: E. coli BL21(DE3) pLysS
T1 sequence (P07320 1-174 R59H): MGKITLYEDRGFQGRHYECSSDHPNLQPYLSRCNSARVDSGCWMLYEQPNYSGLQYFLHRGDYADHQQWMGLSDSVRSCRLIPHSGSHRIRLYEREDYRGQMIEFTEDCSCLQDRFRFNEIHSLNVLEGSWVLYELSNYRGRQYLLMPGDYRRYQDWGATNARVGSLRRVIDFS
Protocol: (§1) Aggregation kinetics assays at 600 nm in the presence of varying concentrations (0, 100, 200, 300, 400, and 500 μM) of our selected drugs were also performed on mutants of HγD (W43R, W42Q, R14C, and R58H) and MγS (F9S) at a concentration of 1 mg/ml in 50 mM K3PO4 buffer (pH 7.2) in a total volume of 100 μl. WT-HγD and WT-MγS crystallin served as controls for their respective mutant versions. For W43R mutant, aggregation assay was done at 42 °C for a total of 200 min. Absorbance was monitored every 10 min. For R14C and R58H mutants, end-point turbidity assay was done at 72 °C for 20 min. […] All the experiments were run in duplicates or triplicates.

[2] = biological target: T2, R14C mutant of HγD (Homo sapiens, UniProt P07320, R15C); assay: End-point turbidity assay (72 °C, 20 min) of R14C mutant; type: biochemical; details: 500 μM drug, 5 mM DTT, read-out: Inhibition of aggregation (%) R14C
T2 construct: made in house; host or cells: E. coli BL21(DE3) pLysS
T2 sequence (P07320 1-174 R15C): T1 sequence (P07320 1-174 R59H) with R15C, H59R
Protocol: as §1

[3] = biological target: T3, HγD (Homo sapiens, UniProt P07320); assay: Steady-state tryptophan fluorescence quenching, HγD; type: binding
T3 construct: made in house; host or cells: E. coli BL21(DE3) pLysS, pET3d vector
T3 sequence (P07320 1-174): T1 sequence (P07320 1-174 R59H) with H59R
Protocol: Tryptophan fluorescence can be used for studying conformational changes resulting from protein–drug interactions ([44]). Fluorescence quenching of aromatic fluorophores in HγD and MγS by drugs C and G at three different temperatures (25, 30, and 37 °C) was studied in the presence of varying concentrations of drug C and G (0–250 μM). As shown in Figs. S5A and S6A, both HγD and MγS have a strong emission peak at 330 nm when excited at 295 nm. In both cases, quenching occurs with gradual addition of C and G at all three temperatures. Overall, quenching of Trp fluorescence emission is at highest at 25 °C (Figs. S5A and S6A) followed by 30 °C and lowest at 37 °C. […] The slope of plot Fo/F versus [Q] gives Ksv (Figs. S5B and S6B), whereas Kb is obtained from intercept of plot log (Fo/F − 1) versus log[Q] (Figs. S5C and S6C). […] For drug M, Kb values are of the order 10^2 M^−1 only. Fluorescence quenching can be either because of random collision between the molecules (dynamic interaction) or because of actual affinity between a protein pocket and drug (static interaction). Dynamic interactions are weaker and nonspecific in nature, whereas static interactions are stronger and more specific ([47]). For more information on the type of interaction, Kq was calculated and compared with the standard value of 2 × 10^10 M^−1s^−1, which is the maximum scatter collision quenching constant of various quenchers with biopolymers ([48]). […] Furthermore, the differential response of Ksv toward temperature change also clarifies the type of quenching. In static quenching, Ksv decreases with an increase in temperature because of the formation of complex with protein, which undergoes dissociation on increasing temperature.
To gauge the strength of the major forces involved in drug–protein complex formation, change in free energy was calculated using Gibbs–Helmholtz equation (Equation 3).(3) ΔG=-RTlnKb ([50]) where, R is gas constant and its value is […], T is absolute temperature (Kelvin) and Kb is binding constant whose value is already calculated using Equation 2. […] Free energy changes are negative at all three temperatures, being maximal at 25 °C. For C, G, and M interaction with HγD, ΔG values were −6.4, −7.9, and −1.9 kcal/mol (at 25 °C), that is, similar to those obtained by molecular docking as described later. These values also reflect the fact that drug M had the least protective effect on unfolding or aggregation of various γ-crystallins (Figs. 2 and S4).
All the steady-state fluorescence measurements were recorded on Fluoromax Spectrofluorometer (Horiba Scientific). For fluorescence quenching measurements, 10 μM of both HγD and MγS crystallins were titrated with varying concentrations of drugs C, G, and M (0–250 μM) at 25, 30, and 37 °C. These samples were excited at 295 nm, and the fluorescence emission was collected from 310 to 410 nm.

[4] = biological target: T4, W43R mutant of HγD (Homo sapiens, UniProt P07320, W43R); assay: Kinetic turbidity assay at 42 °C of W43R mutant; type: biochemical; details: for Effect on aggregation of W43R mutant: 0–500 μM, 42 °C for 200 min, G at 400 and 500 μM; for inhibition at 500 µM: 500 μM drug, 42 °C, 200 min, read-out: Inhibition of aggregation (%) W43R
T4 construct: made in house; host or cells: E. coli BL21(DE3) pLysS
T4 sequence (P07320 1-174 W43R): T1 sequence (P07320 1-174 R59H) with W43R, H59R
Protocol: as §1

| Compound | inhibition at 500 µM [1] [%] | inhibition at 500 µM [2] [%] | KSV ([3]; 25 °C) [M^−1 ×10^3] | Kq ([3]; 25 °C) [M^−1 s^−1 ×10^12] | ΔG ([3]; 25 °C) [kcalM^−1] | KSV ([3]; 30 °C) [M^−1 ×10^3] | Kq ([3]; 30 °C) [M^−1 s^−1 ×10^12] | ΔG ([3]; 30 °C) [kcalM^−1] | KSV ([3]; 37 °C) [M^−1 ×10^3] | Kq ([3]; 37 °C) [M^−1 s^−1 ×10^12] | ΔG ([3]; 37 °C) [kcalM^−1] | ΔG ([3]; at 25 °C) [kcal/mol] | Effect on aggregation of W43R mutant [4] | inhibition at 500 µM [4] [%] |
| --- | --- | --- | --- | --- | --- | --- | --- | --- | --- | --- | --- | --- | --- | --- |
| Cc1cc(C(C#N)c2ccc(Cl)cc2)c(Cl)cc1NC(=O)c1cc(I)cc(I)c1O (centres unmarked) [drug C, Closantel] | 55 | 68 | 4.215 | 0.739 | −6.4 | 4.197 | 0.736 | −6.2 | 4.107 | 0.72 | −5.9 | -6.4 | worsened the aggregation | -34 |
| CC(C)=CCC[C@]1(C)C=Cc2c(O)c3c(c(CC=C(C)C)c2O1)O[C@]12C(=C[C@@H]4C[C@H]1C(C)(C)O[C@@]2(C/C=C(/C)C(=O)O)C4=O)C3=O [drug G, Gambogic acid] | 83 | 55 | 10.252 | 1.79 | −7.9 | 8.440 | 1.47 | −7.7 | 7.880 | 1.38 | −7.2 | -7.9 | protected the mutant against aggregation | 52 |
| O=C(O)CCCCCCCCCCCC[C@@H]1C=CCC1 [drug M, Chaulmoogric acid] | 44 | 18 | 0.288 | 0.051 | −1.9 | 0.507 | 0.08 | −2.5 | 0.680 | – | −2.6 | -1.9 | no effect | 14 |
